From ChEMBL document CHEMBL1201862, “PubChem BioAssay data set” (2004)
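In this assay, cells in 96-well plates receive the compound at five concentrations for 48 hours. Endpoints are linearly interpolated between the surrounding concentrations. Abbreviation: GI50, concentration required for 50% inhibition of growth.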 Activity calls are given as the source filed them. Rule as the data show it: active = GI50 up to about 1.1 µM and inactive = higher.

Legend:
Test in all cases: NCI tumour cell line growth inhibition, 48 h
[1] = system: 786-0
[2] = system: CCRF-CEM
[3] = system: HOP-62
[4] = system: HT-29
[5] = system: KM12
[6] = system: LOX IMVI
[7] = system: NCI-H226
[8] = system: NCI-H460
[9] = system: OVCAR-5
[10] = system: SF-268
[11] = system: SF-295
[12] = system: SN12C
[13] = system: SNB-19
[14] = system: SR
[15] = system: U-251
[16] = system: UO-31
[17] = system: HCT-15

Row | Compound | GI50 [1] | GI50 [2] | GI50 [3] | GI50 [4] | GI50 [5] | GI50 [6] | GI50 [7] | GI50 [8] | GI50 [9] | GI50 [10] | GI50 [11] | GI50 [12] | GI50 [13] | GI50 [14] | GI50 [15] | GI50 [16] | GI50 [17] [µM]
1 | COc1ccccc1NC(=O)CC(=O)n1nc(-c2ccccc2)c(/N=N/c2ccccc2[N+](=O)[O-])c1-c1ccccc1 | > 100 µM (inactive) | > 100 µM (inactive) | > 100 µM (inactive) | 25.2 µM (inactive) | 36.1 µM (inactive) | > 100 µM (inactive) | 0.612 µM (active) | > 100 µM (inactive) | 64.1 µM (inactive) | 95.3 µM (inactive) | > 100 µM (inactive) | > 100 µM (inactive) | > 100 µM (inactive) | > 100 µM (inactive) | 56.5 µM (inactive) | 38.4 µM (inactive) | 
2 | CC1=C[C@H]2C[C@@]3(C)O[C@@H]([C@]4(C)CC[C@H]([C@@H](C)C(=O)O)OO4)CC3C(C)(C)[C@H]2CC1 (some centres undefined) | 3.15 µM (inactive) |  | 2.22 µM (inactive) | 0.479 µM (active) | 0.397 µM (active) | 0.161 µM (active) | 2.01 µM (inactive) | 1.13 µM (inactive) | 3.16 µM (inactive) | 2.17 µM (inactive) | 2.01 µM (inactive) | 1.39 µM (inactive) | 1.79 µM (inactive) |  | 1.65 µM (inactive) | 1.2 µM (inactive) | 
3 | Cn1c2c(c3ccccc31)C1C(=O)N(c3ccccc3)C(=O)C1CC2 (centres undefined) | > 303 µM (inactive) | > 303 µM (inactive) | > 303 µM (inactive) | > 303 µM (inactive) | > 303 µM (inactive) | > 303 µM (inactive) | 85.5 µM (inactive) | > 303 µM (inactive) |  | > 303 µM (inactive) | > 303 µM (inactive) | > 303 µM (inactive) | 111 µM (inactive) | > 303 µM (inactive) | > 303 µM (inactive) |  | > 303
4 | COC(=O)CC(=O)NCC1=CCC(=O)CC1 | > 100 µM (inactive) | > 100 µM (inactive) | > 100 µM (inactive) | > 100 µM (inactive) | > 100 µM (inactive) | > 100 µM (inactive) |  | > 100 µM (inactive) |  | > 100 µM (inactive) | > 100 µM (inactive) | > 100 µM (inactive) | > 100 µM (inactive) |  | > 100 µM (inactive) | > 100 µM (inactive) | > 100
5 | CC1=C(C(=O)Nc2ccc([N+](=O)[O-])cc2)C(c2ccco2)C(C(=O)Nc2ccc([N+](=O)[O-])cc2)=C(C)N1 | 31.8 µM (inactive) | 5.18 µM (inactive) | 10 µM (inactive) | 25.8 µM (inactive) | 6.41 µM (inactive) | 19.6 µM (inactive) | 19.1 µM (inactive) | 20.1 µM (inactive) | 30.9 µM (inactive) | 21.3 µM (inactive) | 28.1 µM (inactive) | 16.3 µM (inactive) | 27.1 µM (inactive) |  | 21.9 µM (inactive) | 7.24 µM (inactive) | 
6 | O=C(COc1ccc(Cl)cc1)N1N=C(c2ccc(Cl)cc2)CC1(O)c1ccccc1 (centres undefined) | 14.5 µM (inactive) | 16.7 µM (inactive) | 23.4 µM (inactive) | 12.9 µM (inactive) | 14.2 µM (inactive) | 12.6 µM (inactive) | 22.3 µM (inactive) | 15.2 µM (inactive) | 21.7 µM (inactive) | > 43.9 µM (inactive) | 23.8 µM (inactive) | 5 µM (inactive) | 20.3 µM (inactive) | 3.69 µM (inactive) | 16.7 µM (inactive) | > 23.7 µM (inactive) | 13.1
7 | CCOc1ccc(/N=N/c2c(-c3ccccc3)nn(C(=O)CC(=O)Nc3cccc(C)c3)c2-c2ccccc2)cc1 | > 100 µM (inactive) | 76.9 µM (inactive) | > 100 µM (inactive) | 22 µM (inactive) | 41.5 µM (inactive) | > 100 µM (inactive) | 96.4 µM (inactive) | > 100 µM (inactive) | 74.1 µM (inactive) | 39 µM (inactive) | > 100 µM (inactive) | > 100 µM (inactive) | > 100 µM (inactive) | > 100 µM (inactive) | 56.2 µM (inactive) | 17.7 µM (inactive) | 
8 | CCCCCCCCCCCCCC(=O)OCC1OC(=O)C(O)C1O (centres undefined) | > 100 µM (inactive) | > 100 µM (inactive) | > 100 µM (inactive) | > 100 µM (inactive) | > 100 µM (inactive) | > 100 µM (inactive) | > 100 µM (inactive) |  | > 100 µM (inactive) | > 100 µM (inactive) | 88.7 µM (inactive) | > 100 µM (inactive) | > 100 µM (inactive) | > 100 µM (inactive) | > 100 µM (inactive) | > 100 µM (inactive) | 
9 | COc1ccc(C2C(Cl)C(=O)N2NC(=O)Cc2ccccc2)cc1 (centres undefined) | > 100 µM (inactive) | > 100 µM (inactive) | > 100 µM (inactive) | > 100 µM (inactive) | > 100 µM (inactive) | > 100 µM (inactive) | > 100 µM (inactive) | > 100 µM (inactive) | > 100 µM (inactive) | > 100 µM (inactive) | > 100 µM (inactive) | > 100 µM (inactive) | > 100 µM (inactive) | > 100 µM (inactive) | > 100 µM (inactive) | > 100 µM (inactive) | > 100
